For data set [1], the target named is NMDA-A (NR1/2A) receptors (Homo sapiens, UniProt Q05586+Q12879). Briefly: Antagonist activity on NMDA receptors (current blockade and recovery).
The test system of data set [2] is α6- and δ-containing GABAa receptors. The conditions noted are these: within anesthetically relevant concentration; cited from earlier work.
The target in data set [3] is NMDA-D (NR1/2D) receptors (Homo sapiens, UniProt O15399+Q05586). Briefly: Antagonist activity on NMDA receptors (current blockade and recovery).
In data set [4] the target is NMDA-B (NR1/2B) receptors (Homo sapiens, UniProt Q05586+Q13224). The description is as above.
Another data set concerns the target T1, α6β2δ GABAa receptors (Homo sapiens, UniProt O14764+P47870+Q16445).
T1 construct: expressed in transfected cells
Briefly: Agonist activity of ketamine analogues on GABAa receptors (potentiation of GABA current, oocyte expression system). Type of data set: cell-based. The protocol:
(§1) The GABAa subtypes α6β2δ and α1β2γ2 receptors are expressed at high levels exclusively within mature cerebellar granule neurons.
(§2) The ketamine analogues were tested for agonist activities at GABAa receptors both in the presence and absence of GABA (FIGS. 13-16). […] Oxime 2 was prepared both as a mono-salt and di-salt.

For data set [5], the system named is rats. Briefly: Tail suspension model of depression in rats. The conditions noted are these: 5 mg/kg, tail suspension for 12 minutes. In kind it is in vivo. The protocol:
Rats were dosed with ketamine oxime disalt and then tested in a model of depression. FIG. 24 illustrates an analysis of the antidepressant effects of ketamine and the oxime analogue at 5 mg/kg in rats undergoing tail suspension for 12 minutes. Note that immobility, giving up the struggle, is a sign of depression in this model. […] V is vehicle, A is ketamine, B is ketamine oxime analogue.

In another data set the target is T2, α1β2γ2 GABAa receptors (Homo sapiens, UniProt P14867+P18507+P47870).
T2 construct: expressed in transfected cells
Briefly: Agonist activity of ketamine analogues on GABAa receptors (potentiation of GABA current, oocyte expression system). In kind it is cell-based. The conditions noted are these: for potentiation of GABAa current, in words: 20 μM. The procedure: as §1, §2

Data set [6] concerns rats. Briefly: Dose response study of motor coordination in rats (open field behavior). In kind it is in vivo. The procedure: The effect of ketamine oxime disalt on motor coordination in rats was evaluated.
For the next data set, the system named is mice. The conditions noted are these: not significant when compared with ketamine; cited from earlier work.
The next data set concerns GABAa receptors. Briefly: Agonist activity on GABAa receptors, subtype not separated in the text. The note with it: for potentiation of GABAA current / response from GABAa receptors, in words: relative to ketamine, various concentrations. In kind it is cell-based. The protocol:
as §1, §2

Data set [7] in a line: Lipophilicity relative to ketamine. In kind it is physicochemical.
Another data set has as its target NMDA-NR1/2C receptors (Homo sapiens, UniProt Q05586+Q14957). Briefly: Antagonist activity on NMDA receptors (current blockade and recovery). The note with it: concentrations 0.1 to 200 μM. Type of data set: cell-based.
In the next data set the test system is NMDA receptors. Briefly: NMDA receptor blockade and recovery, subtypes not separated in the text. Type of data set: cell-based. The note with it: compared with ketamine.
For data set [8], the system named is NMDA receptors with NR2-A and NR2-B subunits. The note with it: cited from earlier work.
[9] abbreviates: NMDA-A (NR1/2A), drug concentration 50 μM, current post drug treatment.
[10] abbreviates: NMDA-D (NR1/2D), drug concentration 50 μM, current post drug treatment.
Setting [11] is: NMDA-B (NR1/2B), drug concentration 50 μM, current post drug treatment.
[12] abbreviates: NMDA-NR1/2A, affinity study, concentrations 0.1 to 200 μM.
[13] abbreviates: NMDA-NR1/2D, affinity study, concentrations 0.1 to 200 μM.
[14] abbreviates: NMDA-NR1/2B, affinity study, concentrations 0.1 to 200 μM.

pIC50: −log10 of the molar value.

NMDA-B (NR1/2B) receptors, sequence (Q13224 27-1484, other chains not shown): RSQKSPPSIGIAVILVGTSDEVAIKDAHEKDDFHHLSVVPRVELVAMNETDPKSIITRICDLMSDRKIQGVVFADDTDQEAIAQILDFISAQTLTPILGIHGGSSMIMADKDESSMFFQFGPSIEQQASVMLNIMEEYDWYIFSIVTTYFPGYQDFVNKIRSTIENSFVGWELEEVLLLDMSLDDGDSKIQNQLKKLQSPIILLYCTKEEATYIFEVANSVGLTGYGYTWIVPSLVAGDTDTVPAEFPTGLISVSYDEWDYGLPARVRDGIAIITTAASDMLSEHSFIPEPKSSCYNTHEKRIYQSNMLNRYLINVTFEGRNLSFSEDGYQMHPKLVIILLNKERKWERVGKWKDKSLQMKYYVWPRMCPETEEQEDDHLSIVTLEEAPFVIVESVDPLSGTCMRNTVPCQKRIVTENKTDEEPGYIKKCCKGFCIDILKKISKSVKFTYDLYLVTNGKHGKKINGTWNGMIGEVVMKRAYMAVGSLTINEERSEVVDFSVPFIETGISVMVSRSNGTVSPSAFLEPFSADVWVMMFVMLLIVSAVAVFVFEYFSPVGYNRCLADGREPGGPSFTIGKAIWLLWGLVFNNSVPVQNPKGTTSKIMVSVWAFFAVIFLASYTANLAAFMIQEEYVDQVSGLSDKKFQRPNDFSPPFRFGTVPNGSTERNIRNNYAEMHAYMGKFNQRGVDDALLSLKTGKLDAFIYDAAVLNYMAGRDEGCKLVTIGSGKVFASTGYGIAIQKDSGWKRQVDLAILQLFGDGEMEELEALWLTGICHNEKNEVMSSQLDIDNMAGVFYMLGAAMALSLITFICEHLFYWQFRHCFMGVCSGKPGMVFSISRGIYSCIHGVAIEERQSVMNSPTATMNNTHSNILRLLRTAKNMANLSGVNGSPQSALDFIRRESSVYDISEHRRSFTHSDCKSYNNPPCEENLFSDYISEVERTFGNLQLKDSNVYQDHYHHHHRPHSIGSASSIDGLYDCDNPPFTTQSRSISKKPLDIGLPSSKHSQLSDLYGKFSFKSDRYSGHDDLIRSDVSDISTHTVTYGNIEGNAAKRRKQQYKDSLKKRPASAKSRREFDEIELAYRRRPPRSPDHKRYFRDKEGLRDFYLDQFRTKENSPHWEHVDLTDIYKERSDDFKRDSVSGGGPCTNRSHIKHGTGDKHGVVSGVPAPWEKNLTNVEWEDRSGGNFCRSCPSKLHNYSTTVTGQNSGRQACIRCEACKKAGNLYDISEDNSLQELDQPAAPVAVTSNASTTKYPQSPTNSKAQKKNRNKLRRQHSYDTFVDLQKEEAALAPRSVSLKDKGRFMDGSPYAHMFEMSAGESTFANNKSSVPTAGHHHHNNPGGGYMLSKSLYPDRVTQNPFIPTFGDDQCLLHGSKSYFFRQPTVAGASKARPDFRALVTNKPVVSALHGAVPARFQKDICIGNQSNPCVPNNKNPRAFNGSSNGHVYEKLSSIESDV
NMDA-D (NR1/2D) receptors, sequence (O15399 28-1336, other chains not shown): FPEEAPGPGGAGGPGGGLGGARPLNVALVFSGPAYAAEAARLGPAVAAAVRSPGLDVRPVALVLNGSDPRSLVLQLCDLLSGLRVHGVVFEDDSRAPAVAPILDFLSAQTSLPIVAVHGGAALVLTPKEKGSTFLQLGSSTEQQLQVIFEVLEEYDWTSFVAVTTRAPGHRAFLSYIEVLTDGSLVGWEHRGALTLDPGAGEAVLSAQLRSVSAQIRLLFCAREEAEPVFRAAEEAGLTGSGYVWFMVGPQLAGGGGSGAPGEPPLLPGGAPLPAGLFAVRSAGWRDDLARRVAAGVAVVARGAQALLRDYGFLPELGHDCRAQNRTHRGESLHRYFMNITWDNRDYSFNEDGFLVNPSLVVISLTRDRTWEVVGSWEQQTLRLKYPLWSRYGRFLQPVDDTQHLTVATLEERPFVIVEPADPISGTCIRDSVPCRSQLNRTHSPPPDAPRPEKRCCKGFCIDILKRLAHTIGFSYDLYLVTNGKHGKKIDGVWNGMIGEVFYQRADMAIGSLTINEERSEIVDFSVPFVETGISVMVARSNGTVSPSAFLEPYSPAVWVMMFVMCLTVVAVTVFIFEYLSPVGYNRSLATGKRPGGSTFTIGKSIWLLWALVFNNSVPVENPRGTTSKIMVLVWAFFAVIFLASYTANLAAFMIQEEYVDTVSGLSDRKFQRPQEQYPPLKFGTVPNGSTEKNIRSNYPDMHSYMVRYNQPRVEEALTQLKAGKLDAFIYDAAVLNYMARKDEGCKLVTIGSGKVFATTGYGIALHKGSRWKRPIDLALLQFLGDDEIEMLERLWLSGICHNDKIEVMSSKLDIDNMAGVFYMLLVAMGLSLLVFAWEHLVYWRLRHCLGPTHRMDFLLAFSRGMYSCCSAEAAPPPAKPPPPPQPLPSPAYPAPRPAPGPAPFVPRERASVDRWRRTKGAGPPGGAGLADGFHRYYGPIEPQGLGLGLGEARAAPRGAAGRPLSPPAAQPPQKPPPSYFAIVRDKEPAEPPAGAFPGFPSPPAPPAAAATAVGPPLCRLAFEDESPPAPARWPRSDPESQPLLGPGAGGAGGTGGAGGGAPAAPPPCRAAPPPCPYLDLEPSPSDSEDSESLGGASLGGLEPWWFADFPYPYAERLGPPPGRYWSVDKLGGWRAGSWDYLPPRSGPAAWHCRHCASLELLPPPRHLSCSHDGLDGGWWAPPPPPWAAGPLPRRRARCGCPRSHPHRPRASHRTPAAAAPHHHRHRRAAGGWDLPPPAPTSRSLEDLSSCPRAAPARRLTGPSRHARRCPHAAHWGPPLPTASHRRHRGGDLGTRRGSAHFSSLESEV
NMDA-A (NR1/2A) receptors, sequence (Q12879 23-1464, other chains not shown): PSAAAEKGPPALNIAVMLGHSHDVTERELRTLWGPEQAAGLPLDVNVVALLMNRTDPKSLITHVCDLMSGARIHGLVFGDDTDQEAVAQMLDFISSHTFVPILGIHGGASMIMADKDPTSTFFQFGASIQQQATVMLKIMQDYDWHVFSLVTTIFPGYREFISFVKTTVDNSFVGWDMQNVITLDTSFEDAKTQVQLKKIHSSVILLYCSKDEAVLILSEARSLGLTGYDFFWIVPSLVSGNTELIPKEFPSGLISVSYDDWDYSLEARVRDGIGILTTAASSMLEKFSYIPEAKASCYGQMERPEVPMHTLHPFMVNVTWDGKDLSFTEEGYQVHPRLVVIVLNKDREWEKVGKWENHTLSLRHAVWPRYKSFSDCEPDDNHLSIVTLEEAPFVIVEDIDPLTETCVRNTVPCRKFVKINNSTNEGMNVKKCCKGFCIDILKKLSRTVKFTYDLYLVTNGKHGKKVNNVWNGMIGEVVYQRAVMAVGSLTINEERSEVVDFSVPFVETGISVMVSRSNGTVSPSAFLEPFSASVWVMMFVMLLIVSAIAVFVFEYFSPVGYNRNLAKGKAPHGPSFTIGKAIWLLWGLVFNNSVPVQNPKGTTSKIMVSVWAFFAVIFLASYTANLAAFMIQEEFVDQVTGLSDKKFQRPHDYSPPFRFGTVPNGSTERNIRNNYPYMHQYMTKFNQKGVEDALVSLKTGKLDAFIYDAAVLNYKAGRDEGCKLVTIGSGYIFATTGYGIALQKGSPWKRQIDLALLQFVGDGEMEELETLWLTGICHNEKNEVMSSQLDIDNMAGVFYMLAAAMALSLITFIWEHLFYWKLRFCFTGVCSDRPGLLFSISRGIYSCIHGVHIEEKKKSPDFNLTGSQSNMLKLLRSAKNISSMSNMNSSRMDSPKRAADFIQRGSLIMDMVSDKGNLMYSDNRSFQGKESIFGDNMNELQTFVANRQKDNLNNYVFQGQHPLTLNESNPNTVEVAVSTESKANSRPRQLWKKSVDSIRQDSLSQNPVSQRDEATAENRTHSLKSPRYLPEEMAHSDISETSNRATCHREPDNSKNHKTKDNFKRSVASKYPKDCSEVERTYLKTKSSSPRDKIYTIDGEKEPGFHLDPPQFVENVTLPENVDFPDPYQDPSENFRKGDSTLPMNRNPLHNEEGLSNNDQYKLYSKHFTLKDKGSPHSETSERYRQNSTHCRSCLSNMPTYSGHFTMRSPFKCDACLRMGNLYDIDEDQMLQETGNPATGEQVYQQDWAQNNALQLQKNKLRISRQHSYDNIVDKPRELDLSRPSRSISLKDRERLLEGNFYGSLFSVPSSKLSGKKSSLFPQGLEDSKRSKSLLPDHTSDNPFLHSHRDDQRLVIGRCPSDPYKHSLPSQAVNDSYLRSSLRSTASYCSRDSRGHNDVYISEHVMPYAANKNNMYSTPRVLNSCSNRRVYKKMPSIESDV

For `c1ccc(C2(N3CCCCC3)CCCCC2)cc1` [PCP, Phencyclidine, reference compound], the results for the inhibition at 50 µM in data set [1], in [3] and in [4] were 88.4%, 87.5% and 96.8%, respectively. The “% Recovery” value in data set [1] (setting [9]) stood at 93.953%; in data set [3] (setting [10]), 66.666%; in data set [4] (setting [11]) it was 59.677%. Moreover, the “potentiation of GABA / tonic chloride current” value in data set [2] is given as “less active compared to ketamine”.
Regarding `CNC1(c2ccccc2Cl)CCCC/C1=N\O` (stereo not drawn) [Oxime (Monosalt), 2-(2-Chloro-phenyl)-2-methylamino-cyclohexanone oxime], the “IAverage = (IGABA + Drug/IGABA) 100” value at α6β2δ GABAa receptors (Conc. 10 (μM)) worked out at 128.2 n. amp; at α6β2δ GABAa receptors (Conc. 20 (μM)), 193.746 n. amp; on α6β2δ GABAa receptors (Conc. 50 (μM)), 312.04 n. amp.
On to `CNC1(c2ccccc2Cl)CCCCC1=O` (stereo not drawn) [Ketamine, reference compound], for which, in the data set with rats [5], the “immobility in tail suspension, overall versus saline” value was “No significant differences”. The pIC50 was 5.63 in [1], 6.12 in [3] and 6.09 in data set [4]. The inhibition at 50 µM in data set [1] amounted to 57.6%; in data set [3], 88.1%; in [4] it was 80.5%. For the same compound, the “% Recovery” value in data set [1] (setting [9]) is reported as 84.745%; in data set [1] (setting [12]), 28%; in [3] (setting [10]), 26.19%; in data set [3] (setting [13]), 24%; in data set [4] (setting [11]), 34.564%; in data set [4] (setting [14]), 19%. For the same compound, the “potentiation of GABA / tonic chloride current” value in data set [2] was “potentiated the GABA current”. Further, the “IAverage = (IGABA + Drug/IGABA) 100” value on α6β2δ GABAa receptors (Conc. 10 (μM)) stood at 116.2 n. amp; on α6β2δ GABAa receptors (Conc. 20 (μM)) it was 157.1 n. amp; on α6β2δ GABAa receptors (Conc. 50 (μM)) it was 218.3 n. amp; at α1β2γ2 GABAa receptors (Conc. 20 (μM)), 0 n. amp; at α1β2γ2 GABAa receptors (Conc. 50 (μM)), 105 n. amp; at α1β2γ2 GABAa receptors (Conc. 100 (μM)), 119 n. amp. In addition, on α1β2γ2 GABAa receptors, the “potentiation of GABAa current, in words” value is “not able to potentiate any current”.
For the compound `CNC1(c2ccccc2Cl)CCCC/C1=N\O` (stereo not drawn) [Oxime (Disalt), 2-(2-Chloro-phenyl)-2-methylamino-cyclohexanone oxime], the “immobility in tail suspension, overall versus saline” value with rats [5] was “No significant differences”. Besides, in the data set with rats [5], the “immobility in tail suspension, slope analysis” value is given as “decreased immobility”. Moreover, the “effect on motor coordination (open field behavior)” value with rats [6] (6 and 12 minute period following injection, dose response) is “CNS depressant effects”. The “observed behaviour in vivo” value in the data set on rats [6] (at higher doses) was “loss of equilibrium, unsteady gait and immobility”. Further, in the data set with rats [6] (at higher doses), the “righting reflex (an indication of anesthesia)” value is listed as “without loss of righting reflex”. In addition, the results for the “potentiation of GABAa current, in words” value on α6β2δ GABAa receptors (20 μM) and on α1β2γ2 GABAa receptors were “greater potentiation” and “greatly potentiated”, respectively. The “increase in potentiation relative to ketamine” value on α6β2δ GABAa receptors (50 μM) and at α1β2γ2 GABAa receptors (100 μM) was “nearly two fold increase” in each case. Moreover, the “IAverage = (IGABA + Drug/IGABA) 100” value at α6β2δ GABAa receptors (Conc. 10 (μM)) came out at 165.4 n. amp; at α6β2δ GABAa receptors (Conc. 20 (μM)), 239 n. amp; at α6β2δ GABAa receptors (Conc. 50 (μM)), 418 n. amp; at α1β2γ2 GABAa receptors (Conc. 20 (μM)), 122.678 n. amp; on α1β2γ2 GABAa receptors (Conc. 50 (μM)), 153.41 n. amp; on α1β2γ2 GABAa receptors (Conc. 100 (μM)), 214.5 n. amp.
As for `CC1(N)CCc2ccccc2C1=O` (stereo not drawn) [2-amino-2-methyl-1-tetralone], in the data set with mice, the locomotor activity entry is given as “increased locomotor activity”.
In the case of `CNC1(c2ccccc2Cl)CCCC/C1=N\NC(N)=O` (stereo not drawn) [Semicarbazone, 2-(2-Chloro-phenyl)-2-methylamino-cyclohexanone O-semicarbazone], the inhibition at 50 µM in [1] worked out at 33.6%; in data set [3], 33.3%; in data set [4] it was 50.8%. Further, in the data set on GABAa receptors, the “potentiation of GABAA current / response from GABAa receptors, in words” value (“potentiation of GABAA current / response” below) is “less sensitive than ketamine”. Besides, the “% Recovery” value in [4] (setting [11]) is 98.484%.
Take `CNC1(c2ccccc2Cl)CCCC/C1=N\OCc1ccccc1` (stereo not drawn) [Benzoxime, 2-(2-Chloro-phenyl)-2-methylamino-cyclohexanone O-benzyl-oxime]: the “potentiation of GABAA current / response” value in the data set with GABAa receptors is recorded as “did not evoke considerable response”. Moreover, the inhibition at 50 µM in [3] came out at 49.3%; in data set [4], 41%. The results for the “% Recovery” value in [3] (setting [10]) and in data set [4] (setting [11]) were 79.452% and 77.639%, respectively. Also, the “lipophilicity compared to ketamine” value in data set [7] is given as “increased lipophilicity”.
On to `CC1(N)C(=O)CCc2ccccc21` (stereo not drawn) [1-amino-1-methyl-2-tetralone], for which, in the data set with mice, the locomotor activity result is listed as “decreased”.
With `CNC1(c2ccccc2Cl)CCCC/C1=N\OC` (stereo not drawn) [Methoxime, 2-(2-Chloro-phenyl)-2-methylamino-cyclohexanone O-methyl-oxime], the inhibition at 50 µM was 25.3% in data set [1], 57.5% in data set [3] and 75.6% in data set [4]. The “% Recovery” value is 98.453% in data set [1] (setting [9]), 82.5% in data set [3] (setting [10]) and 71.6417% in [4] (setting [11]). The “potentiation of GABAA current / response” value with GABAa receptors is “did not evoke considerable response”. Also, in data set [7], the “lipophilicity compared to ketamine” value was “increased lipophilicity”.
As for `CNC1(c2ccccc2Cl)CCCCC1O` (stereo not drawn) [Hydroxy, 2-(2-Chloro-phenyl)-2-methylamino-cyclohexanol], the “potentiation of GABAA current / response” value in the data set on GABAa receptors is “less sensitivity than ketamine”. Further, the “IAverage = (IGABA + Drug/IGABA) 100” value on α6β2δ GABAa receptors (Conc. 10 (μM)) turned out to be 100 n. amp; on α6β2δ GABAa receptors (Conc. 20 (μM)), 100 n. amp; at α6β2δ GABAa receptors (Conc. 50 (μM)), 123.98 n. amp; at α6β2δ GABAa receptors (Conc. 100 (μM)), 135.41 n. amp.
With `CNC1(c2ccccc2Cl)CCCC/C1=N\O` (stereo not drawn) [Oxime, 2-(2-Chloro-phenyl)-2-methylamino-cyclohexanone oxime], the negative-log IC50 (pIC50) in data set [1] was 5.23; at NMDA-NR1/2C receptors, 6.13; in data set [3], 5.97; in data set [4], 5.97. For the same compound, the figures for the inhibition at 50 µM in data set [1], in data set [3] and in [4] were 89.2%, 86.7% and 83%, respectively. For the same compound, the “% Recovery” value is given as 86.1538% in data set [1] (setting [9]); 74% in data set [1] (setting [12]); 44% at NMDA-NR1/2C receptors (affinity study); 52.272% in data set [3] (setting [10]); 68% in data set [3] (setting [13]); 33.9622% in [4] (setting [11]). For the same compound, the “% Recovery” value in data set [4] (setting [14]) is given as 31%. For the same compound, the IC50 versus ketamine entry in [1] (NMDA-A receptors) is recorded as “two fold higher”. Besides, the “excitory post synaptic potential relative to ketamine” value in the data set with GABAa receptors (GABAa receptors) was “two times more excitory post synaptic potential than ketamine”. The “potentiation of GABAA current / response” value with GABAa receptors was “greatly potentiated”. Also, in data set [7], the “lipophilicity compared to ketamine” value is given as “reduce lipophilicity”. Also, the “lasting effect following wash of the drug” value with NMDA receptors is on record as “less than ketamine”.
As for `C[C@]12N[C@H](Cc3ccccc31)c1ccccc12` [Mk-801], in [2], the “potentiation of GABA / tonic chloride current” value is “less active compared to ketamine”.
For the compound `CNC1(c2ccc(OC)cc2Cl)CCCCC1=O` (stereo not drawn) [G], the “functional activity in comparison to ketamine” value in data set [8] was “appreciable activity”.

Values taken from US9073819B2, “Compositions, methods of use, and methods of treatment” (UNIVERSITY OF SOUTH FLORIDA, priority 2011, dated 2015).
